This passage reports IC50 results from patent US7704995B2 (Exelixis, Inc., priority 2003, dated 2010).

One assay concerns the target T1, Chk1 (Homo sapiens, UniProt O14757).
T1 construct: purchased Upstate Biotechnology
T1 sequence (O14757 1-476): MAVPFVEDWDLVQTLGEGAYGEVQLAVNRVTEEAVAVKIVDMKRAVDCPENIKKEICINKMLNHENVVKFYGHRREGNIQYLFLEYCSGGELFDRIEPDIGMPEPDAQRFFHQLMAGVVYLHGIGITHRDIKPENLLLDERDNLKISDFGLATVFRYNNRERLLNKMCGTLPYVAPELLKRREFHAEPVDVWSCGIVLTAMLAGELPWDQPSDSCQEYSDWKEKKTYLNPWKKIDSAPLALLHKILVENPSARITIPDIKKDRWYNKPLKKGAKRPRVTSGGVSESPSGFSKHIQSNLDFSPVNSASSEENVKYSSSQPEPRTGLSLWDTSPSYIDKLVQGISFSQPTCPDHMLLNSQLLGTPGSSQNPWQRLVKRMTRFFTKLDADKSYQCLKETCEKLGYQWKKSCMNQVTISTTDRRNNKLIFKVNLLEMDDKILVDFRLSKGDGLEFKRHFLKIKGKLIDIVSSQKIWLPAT
As to the kind of experiment: Chk1 kinase assay: incorporation of γ-33P ATP into immobilized myelin basic protein. Particulars: Table 11, Chk1 only; class symbols A-D; read-out: Chk1 IC50. The class given is biochemical. Summed up:
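Read-out is scintillation counting of 33P incorporated into plate-bound myelin basic protein. Chk1 runs at 10 nM enzyme with 10 μM ATP, Chk2 at 20 nM with 30 μM ATP, each for 1 hour at room temperature. Duplicate points; IC50 taken as 50% activity reduction, Ki computed from IC50.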
On to `COc1cccc(-c2cnc(N)c(C(=O)N[C@H]3CCCNC3)n2)c1` [Example 961, 3-amino-6-[3-(methyloxy)phenyl]-N-[(3S)-piperidin-3-yl]pyrazine-2-carboxamide], for which the 50% inhibitory concentration (IC50) (commonly the concentration at which inhibition is half-maximal) was less than 50 nM.
As for `Nc1ncc(-c2cccc(C(=O)NCc3ccc(Cl)cc3)c2)nc1-c1nnc([C@H]2CCCNC2)[nH]1` [Example 838, 3-(5-amino-6-{5-[(3S)-piperidin-3-yl]-4H-1,2,4-triazol-3-yl}pyrazin-2-yl)-N-[(4-chlorophenyl)methyl]benzamide], the IC50 was less than 50 nM.
On to `Cc1ccc(CNC(=O)c2cccc(-c3cnc(N)c(C(=O)N[C@H]4CCCNC4)n3)c2)c(C)c1` [Example 1038, 3-amino-6-[3-({[(2,4-dimethylphenyl)methyl]amino}carbonyl)phenyl]-N-[(3S)-piperidin-3-yl]pyrazine-2-carboxamide], for which the half-inhibitory concentration (IC50) is less than 50 nM.

Staying with this assay, now noted: Table 11; Chk1 only; read-out: Chk1 IC50.
With `Nc1ncc(-c2cccc(S(=O)(=O)N[C@H]3CCc4ccccc43)c2)nc1C(=O)NC1CCCNC1` (stereo partly drawn) [Example 803, 3-amino-6-(3-{[(1S)-2,3-dihydro-1H-inden-1-ylamino]sulfonyl}phenyl)-N-piperidin-3-ylpyrazine-2-carboxamide], the IC50 lay within 50 to 1000 nM.
`CC(C)(C)OC(=O)N1CCC[C@H](NC(=O)c2nc(-c3cccc(C(=O)N[C@H]4CCc5ccccc54)c3)cnc2N)C1` [Example 776, 1,1-dimethylethyl (3S)-3-({[3-amino-6-(3-{[(1S)-2,3-dihydro-1H-inden-1-ylamino]carbonyl}phenyl)pyrazin-2-yl]carbonyl}amino)piperidine-1-carboxylate]: the IC50 was 50 to 1000 nM.
`CNc1nccc(-c2nc(-c3cccc(C(=O)NCc4ccccc4)c3)cnc2N)n1` [Example 657, 3-{5-amino-6-[2-(methylamino)pyrimidin-4-yl]pyrazin-2-yl}-N-(phenylmethyl)benzamide]: the IC50 was not below 10000 nM.
For `Cc1noc(C)c1NC(=O)NCCNC(=O)c1nc(-c2cccc(C(=O)NCc3ccccc3)c2)cnc1N` [Example 666, 3-amino-N-[2-({[(3,5-dimethylisoxazol-4-yl)amino]carbonyl}amino)ethyl]-6-(3-{[(phenylmethyl)amino]carbonyl}phenyl)pyrazine-2-carboxamide], the IC50 fell in the range of 1000 to 10000 nM.
Still for that read-out and setting: with `CNC(=O)c1nc(-c2cccc(CNC3COc4ccccc43)c2)cnc1N` (stereo not shown) [Example 507, 3-amino-6-{3-[(2,3-dihydro-1-benzofuran-3-ylamino)methyl]phenyl}-N-methylpyrazine-2-carboxamide] the figure was 50 to 1000 nM.
As for `Nc1ncc(-c2cccc(C(=O)NCc3ccccc3)c2)nc1C(=O)N1CCCC(C(=O)O)C1` (stereo not shown) [Example 614, 1-{[3-amino-6-(3-{[(phenylmethyl)amino]carbonyl}phenyl)pyrazin-2-yl]carbonyl}piperidine-3-carboxylic], the IC50 was not below 10000 nM.
For the compound `NCCCNC(=O)c1nc(-c2cccc(C(=O)NCc3ccccc3)c2)cnc1N` [Example 613, 3-amino-N-(3-aminopropyl)-6-(3-{[(phenylmethyl)amino]carbonyl}phenyl)pyrazine-2-carboxamide], the IC50 fell in the range of 50 to 1000 nM.
Still for that read-out and setting: with `CNC(=O)c1nc(-c2cccc(C(=O)NNc3ccccc3F)c2)cnc1N` [Example 432, 3-amino-6-(3-{[2-(2-fluorophenyl)hydrazino]carbonyl}phenyl)-N-methylpyrazine-2-carboxamide] the figure was 50 to 1000 nM.
On the same count and under the same terms, the value for `Nc1ncc(-c2cccc(CO)c2)nc1-c1nc([C@@H]2CCCNC2)n[nH]1` [Example 724, [3-(5-amino-6{3-[(3R)-piperidin-3-yl]-1H-1,2,4-triazol-5-yl}pyrazin-2-yl)phenyl]methanol] was 50 to 1000 nM; that for `Nc1ncc(-c2cccc(CN[C@H]3CCc4ccccc43)c2)nc1C(=O)NCC1CC1` [Example 543, 3-amino-N-(cyclopropylmethyl)-6-(3-{[(1S)-2,3-dihydro-1H-inden-1-ylamino}methyl}phenyl)pyrazine-2-carboxamide] was 50 to 1000 nM.
`Nc1ncc(-c2cccc(CN[C@H]3CCc4ccccc43)c2)nc1C(=O)NCCN1CCOCC1` [Example 542, 3-amino-6-(3-{[(1S)-2,3-dihydro-1H-inden-1-ylamino]methyl}phenyl)-N-(2-morpholin-4-ylethyl)pyrazine-2-carboxamide]: the IC50 fell in the range of 1000 to 10000 nM.
Same read-out and setting: the value for `CC(C)(C)OC(=O)N1CCCC(NC(=O)c2nc(-c3cccc(C(=O)N[C@H]4CCc5ccccc54)c3)cnc2N)C1` (stereo partly drawn) [Example 728, 1,1-dimethylethyl 3-({[3-amino-6-(3-{[(1S)-2,3-dihydro-1H-inden-1-ylamino]carbonyl}phenyl)pyrazin-2-yl]carbonyl}amino)piperidine-1-carboxylate] was not below 10000 nM; that for `Nc1ncc(-c2cccc(C(=O)NCc3ccccc3)c2)nc1C(=O)NCCCNC(=O)c1cnc2ccccc2n1` [Example 651, N-[3-({[3-amino-6-(3-{[(phenylmethyl)amino]carbonyl}phenyl)pyrazin-2-yl]carbonyl}amino)propyl]quinoxaline-2-carboxamide] was not below 10000 nM.

The same assay, now with this note: read-out: Chk1 IC50.
For the compound `CNC(=O)c1nc(-c2cccc(C(=O)NCC3CCNC3)c2)cnc1N` (stereo not shown) [Example 366, 3-amino-N-methyl-6-(3-{[(pyrrolidin-3-ylmethyl)amino]carbonyl}phenyl)pyrazine-2-carboxamide], the half-maximal inhibitory concentration (IC50) lay in the range of 50 to 1000 nM.
Still for that read-out and setting: the value for `CNC(=O)c1nc(-c2ccsc2)cnc1N` [Example 264, 3-amino-N-methyl-6-(3-thienyl)pyrazine-2-carboxamide] was 50 to 1000 nM; that for `CNC(=O)c1nc(-c2cccc(C(=O)NCc3ccc(Oc4ccccc4)cc3)c2)cnc1N` [Example 184, 3-amino-N-methyl-6-{3-[({[4-(phenyloxy)phenyl]methyl}amino)carbonyl]phenyl}pyrazine-2-carboxamide] was 50 to 1000 nM.
The same measure, in the same setting: the value for `CNC(=O)c1nc(-c2cccc(C(=O)NCC3CCN(C(=O)OC(C)(C)C)C3)c2)cnc1N` (stereo not shown) [Example 364, 1,1-dimethylethyl 3-({[(3-{5-amino-6-[(methylamino)carbonyl]pyrazin-2-yl}phenyl)carbonyl]amino}methyl)pyrrolidine-1-carboxylate] was 50 to 1000 nM; that for `CNC(=O)c1nc(-c2cccc(CNC(=O)c3ccc(Cl)c(Cl)c3)c2)cnc1N` [Example 320, 3-amino-6-[3-({[(3,4-dichlorophenyl)carbonyl]amino}methyl)phenyl]-N-methylpyrazine-2-carboxamide] was 50 to 1000 nM; that for `CNC(=O)c1nc(-c2cccc(C(=O)N(Cc3ccccc3)Cc3ccccc3)c2)cnc1N` [Example 114, 3-amino-6-(3-{[bis(phenylmethyl)amino]carbonyl}phenyl)-N-methylpyrazine-2-carboxamide] was 1000 to 10000 nM.
On the same count and under the same terms, the value for `CNC(=O)c1nc(-c2cccc(C(=O)NCc3cc(Br)ccc3F)c2)cnc1N` [Example 256, 3-amino-6-[3-({[(5-bromo-2-fluorophenyl)methyl]amino}carbonyl)phenyl]-N-methylpyrazine-2-carboxamide] was 50 to 1000 nM; that for `CNC(=O)c1nc(-c2ccc3[nH]ccc3c2)cnc1N` [Example 267, 3-amino-6-(1H-indol-5-yl)-N-methylpyrazine-2-carboxamide] was 50 to 1000 nM.
Regarding `CC[C@@H](NC(=O)c1cccc(-c2cnc(N)c(C(=O)NC)n2)c1)c1ccccc1` [Example 146, 3-amino-N-methyl-6-[3-({[(1R)-1-phenylpropyl]amino}carbonyl)phenyl]pyrazine-2-carboxamide], the IC50 was in the range of 1000 to 10000 nM.
For the compound `CNC(=O)c1nc(-c2cccc(C(=O)Nc3ccc(OC)cc3)c2)cnc1N` [Example 222, 3-amino-N-methyl-6-[3-({[4-(methyloxy)phenyl]amino}carbonyl)phenyl]pyrazine-2-carboxamide], the IC50 lay within 50 to 1000 nM.
As to `CNC(=O)c1nc(-c2cccc(C(=O)NCc3cccc(Cl)c3F)c2)cnc1N` [Example 300, 3-amino-6-[3-({[(3-chloro-2-fluorophenyl)methyl]amino}carbonyl)phenyl]-N-methylpyrazine-2-carboxamide], the IC50 lay in the range of 50 to 1000 nM.
As to `CNC(=O)c1nc(-c2cccc(C(=O)NCc3ccc(S(C)(=O)=O)cc3)c2)cnc1N` [Example 255, 3-amino-N-methyl-6-{3-[({[4-(methylsulfonyl)phenyl]methyl}amino)carbonyl]phenyl}pyrazine-2-carboxamide], the IC50 lay within 50 to 1000 nM.
On the same count and under the same terms, the value for `CNC(=O)c1nc(-c2cccc(C(=O)NCC(C)(C)C)c2)cnc1N` [Example 252, 3-amino-6-(3-{[(2,2-dimethylpropyl)amino]carbonyl}phenyl)-N-methylpyrazine-2-carboxamide] was 1000 to 10000 nM; that for `CNC(=O)c1nc(-c2cccc(C(=O)NCc3ccc(F)c(Br)c3)c2)cnc1N` [Example 257, 3-amino-6-[3-({[(3-bromo-4-fluorophenyl)methyl]amino}carbonyl)phenyl]-N-methylpyrazine-2-carboxamide] was 50 to 1000 nM.
As to `CNC(=O)c1nc(-c2cccc(OCCc3ccccc3)c2)cnc1N` [Example 174, 3-amino-N-methyl-6-{3-[(2-phenylethyl)oxy]phenyl}pyrazine-2-carboxamide], the IC50 fell in the range of 50 to 1000 nM.
